Reference: patent publication US12343350B2, “Istaroxime-containing intravenous formulation for the treatment of acute heart failure (AHF)” (Windtree Therapeutics, Inc., priority 2019, dated 2025)
Where a name gives a salt, the structure may show the parent alone. Read-outs that look alike come from different tables or passages of the source. Marks after values point to notes of the source that are not given here.

Columns and labels:
[1] = death due mainly to arrhythmias; cited from earlier work
[2] = biological target: dog renal Na,K-ATPase (Canis lupus familiaris (Dog) (Canis familiaris), UniProt P50997); experiment: Inhibition of dog renal Na,K-ATPase activity (32P-ATP); type: biochemical
Description: Kidneys were sliced and the outer medulla was dissected, pooled and suspended (1 g/10 ml) in a sucrose-histidine solution, containing 250 mM sucrose, 30 mM histidine and 5 mM EDTA, pH 7.2 and homogenized. The homogenate was centrifuged at 6.000 g for 15 min, the supernatant was decanted and centrifuged at 48.000 g for 30 min. The pellet was suspended in the sucrose-histidine buffer and incubated for 20 min with a sodium-dodecyl-sulphate (SDS) solution dissolved in a gradient buffer, containing 25 mM imidazole and 1 mM EDTA, pH 7.5. […] The pellet was suspended in the gradient buffer.
Increasing concentrations of the standard ouabain, or tested compound, were incubated with 0.3 μg of purified dog kidney enzyme for 10 min at 37° C. in 120 μl final volume of a medium containing 140 mM NaCl, 3 mM MgCl2, 50 mM Hepes-Tris, 3 mM ATP at a pH 7.5. Then, 10 μl of incubation solution containing 10 mM KCl and 20 nCi of ^32P-ATP (3-10 Ci/mmol, Perkin Elmer) was added, and the reaction was continued for 15 min at 37° C. The reaction was then stopped by acidification with 20% v/v ice-cold perchloric acid. ^32P was separated by centrifugation with activated Charcoal (Norit A, Serva) and the radioactivity was measured. The inhibitory activity was expressed as percent of the control samples carried out in the absence of ouabain or tested compound.

[3] = test system: SERCA2a; conditions: previous studies; cited from earlier work
[4] = Plasma levels of istaroxime and its metabolites in patients (HPLC-MS/MS); type: in vivo, human; conditions: 24 h infusion of 0.5 or 1 μg/kg/min istaroxime, Caucasian and Chinese patients
Description: The quantitative determination of PST 2744 and its metabolite PST 2915 in human plasma was determined by the HPLC-MS/MS method that included a mobile phase of 70:30 acetonitrile/water, 1 mL/L 1M formic acid, and 1 mL/L 5M ammonium acetate. The flow rate was 1 mL/min, and the chromatographic separation was by reversed phase HPLC (Column: SYNERGI 4μ POLAR-RP80A 150×4.6 mm equipped with a Security-guard Phenomenex Polar-RP 4×3 mm). Detection was performed by MS/MS, and the acquisition mode was Multiple Reaction Monitoring (MRM).
The quantitative determination of istaroxime metabolies PST 2922 and PST 3093 in human plasma was also measured by the HPLC-MS/MS method. In this case, the mobile phase was 50:50 H2 O/CH3 CN (v/v) and 500 μL/L 98-100% HCOOH. The flow rate was 1 mL/min and chromatographic separation was done by reversed-phase HPLC (Column: Phenomenex Phenyl hexyl, 150×4.6 mm, equipped with a Phenomenex phenyl propyl guard-cartridge) under isocratic conditions. Detection was performed by MS/MS (376.0→282.0 amu for PST2922, 378.0→284.0 amu for PST 3093 and 362.0→268.0 amu for PST 3418, IS).

[5] = biological target: SERCA2a (Canis lupus familiaris (Dog) (Canis familiaris), UniProt O46674); experiment: SERCA2a ATPase activity in heart-derived SR microsomes from normal dog; type: biochemical; conditions: normal dog SR microsomes
Sequence of SERCA2a (Canis lupus familiaris (Dog) (Canis familiaris), UniProt O46674) (O46674 whole entry): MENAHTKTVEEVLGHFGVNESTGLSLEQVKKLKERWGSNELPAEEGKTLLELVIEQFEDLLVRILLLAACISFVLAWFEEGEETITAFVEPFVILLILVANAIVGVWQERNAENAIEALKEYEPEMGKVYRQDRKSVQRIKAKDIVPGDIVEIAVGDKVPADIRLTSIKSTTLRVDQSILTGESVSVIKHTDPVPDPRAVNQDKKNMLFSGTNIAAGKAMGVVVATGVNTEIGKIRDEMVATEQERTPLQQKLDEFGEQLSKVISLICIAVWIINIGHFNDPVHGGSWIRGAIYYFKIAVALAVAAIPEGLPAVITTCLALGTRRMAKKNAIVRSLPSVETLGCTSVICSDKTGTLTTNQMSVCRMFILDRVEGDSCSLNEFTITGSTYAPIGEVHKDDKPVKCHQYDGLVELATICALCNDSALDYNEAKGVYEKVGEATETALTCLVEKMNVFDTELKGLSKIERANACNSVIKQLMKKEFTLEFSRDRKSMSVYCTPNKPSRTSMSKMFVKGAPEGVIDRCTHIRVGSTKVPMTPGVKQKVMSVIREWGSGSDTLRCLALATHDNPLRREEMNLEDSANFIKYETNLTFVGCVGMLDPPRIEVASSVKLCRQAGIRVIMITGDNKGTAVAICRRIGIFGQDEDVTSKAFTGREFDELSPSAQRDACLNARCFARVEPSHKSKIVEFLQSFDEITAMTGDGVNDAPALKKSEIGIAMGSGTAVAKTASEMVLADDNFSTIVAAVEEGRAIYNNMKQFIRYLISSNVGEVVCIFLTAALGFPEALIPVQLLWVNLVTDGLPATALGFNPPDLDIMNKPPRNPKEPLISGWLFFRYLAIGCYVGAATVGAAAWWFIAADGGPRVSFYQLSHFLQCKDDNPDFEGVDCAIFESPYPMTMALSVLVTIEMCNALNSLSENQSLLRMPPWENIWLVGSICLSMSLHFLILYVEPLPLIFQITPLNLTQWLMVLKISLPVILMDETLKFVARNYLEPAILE
Description: Male beagle dogs were used for obtaining cardiac tissues for SERCA2a-enriched sarcoplasmic reticulum preparations. Healthy dogs were utilized for obtaining the data in Table 3. Chronic heart failure was induced in dogs by multiple intracoronary microembolizations with polystyrene latex microspheres ([…], Polysciences, Warrington, PA, USA) as described previously (see Sabbah H N et al., Am J Physiol. 1991; 260:H1379-84). The experiments were conducted in the General Pharmacology Department of Sigma-Tau, Rome, Italy.
Left ventricle tissues were dissected, homogenized in 4 volumes of 10 mM NaHCO3 (pH 7), 1 mM PMSF, 10 μg/ml Aprotinin and Leupeptin and centrifuged at 12.000 g for 15 minutes, as described in Nediani C. et al. (J Biol Chem. 1996; 271:19066-73). Supernatants were filtered and centrifuged at 100.000 g for 30 min. Contractile proteins were extracted by suspending the pellets with 0.6 M KCl, 30 mM Histidine, pH 7 and further centrifugation at 100.000 g for 30 min. Final pellets were reconstituted with 0.3 M Sucrose, 30 mM Histidine, pH 7.
SERCA2a activity was measured in vitro as ^32P-ATP hydrolysis at different Ca2^+ concentrations (100 to 3000 nM) in the absence and presence of the tested compounds as described previously (see Micheletti R. et al., Am J Card 2007; 99:24A-32A). Increasing concentrations of each compound (from 0.05 to 300 nM) were pre-incubated with 2 μg of microsomes for 5 min at 4° C. in 80 μl of a solution containing 100 mM KCl, 5 mM MgCl2, 1 μM A23187, 20 mM Tris, pH 7.5. Then, 20 μl of 5 mM Tris-ATP containing 50 nCi of ^32P-ATP (3-10 Ci/mmol, Perkin Elmer) was added. The ATP hydrolysis was continued for 15 min at 37° C. and was stopped by acidification with 100 μl of 20% v/v ice-cold perchloric acid. ^32P was separated by centrifugation with activated charcoal (Norit A, SERVA) and the radioactivity was measured. SERCA2a-dependent activity was identified as the portion of total hydrolytic activity inhibited by 10 μM cyclopiazonic acid (see Seidler N W. et al., J Biol Chem. 1989; 264:17816-23).
Dose-response curves were fitted by using a sigmoidal curve fitting software and the maximal velocity (Vmax) activity and the Kd Ca2^+ were calculated (Synergy Software KaleidaGraph 3.6).
The compounds disclosed herein were tested on SERCA2a ATPase activity prepared from normal and failing dogs in a range of concentrations from […]. The effect has been expressed as % increase of the Vmax activity of a control sample run in the absence of compound. Data are mean & SD, where n indicates the number of experiments.

[6] = stimulation of cardiac pumping ability; cited from earlier work

C[C@H]1O[C@@H](O[C@H]2[C@@H](O)C[C@H](O[C@H]3[C@@H](O)C[C@H](O[C@H]4CC[C@@]5(C)[C@H](CC[C@@H]6[C@@H]5C[C@@H](O)[C@]5(C)[C@@H](C7=CC(=O)OC7)CC[C@]65O)C4)O[C@@H]3C)O[C@@H]2C)C[C@H](O)[C@@H]1O [Digoxin]
serum concentration threshold above which increased risk of death [1]: 0.9 ng/mL
IC50 ([2]; purified dog kidney enzyme, 37° C., read-out: IC50, inhibition of dog renal Na,K-ATPase): 0.18 µM
SERCA2a activity stimulation [3]: failed to stimulate

C[C@]12CCC(=NOCCN)CC1[C@H](O)CC1C2CC[C@]2(C)C(=O)CCC12 (stereo partly drawn) [PST 2915, (E,Z)-3-(2-Aminoethoxyimino)-6beta-hydroxyandrostan-17-one hydrochloride]
plasma concentration course during the infusion period [4]: continue to accumulate
IC50 [2]: 2.1 µM
% increase vs control (Vmax) ([5]; 0.1 nM compound): 11%
% increase vs control (Vmax) ([5]; 10 nM compound): 16* %

COC(=O)N1CCN(Cc2cccc(NC(=O)Nc3ccc(C)nc3)c2F)CC1 [omecamtiv]
plasma levels of Hs TnT [6]: associated with an increase
